Assays:
[1] = test system: PC-3 cells, melanoma and other cancer cell lines; assay: Cancer cell proliferation and survival (BrdUrd, WST-1, caspase-3; FIG. 2); type: cell-based
Experimental: A, PC-3 cells were treated for 27 h with 100 μmol/L LPA in the presence or absence of various concentrations of CCG-1423, labeled with BrdUrd, and stained, and absorbance was read 450 nm. B, various cell lines were treated with […] LPA with or without […] CCG-1423, and then on day 8, WST-1 absorbance was read at 450 nm Black columns indicate four melanoma lines with differing expression of RhoC (A375M2 and SK-MeI-147 have high expression, whereas the parental line A375 (used to derive A375M2) and SK-Mel-28 have lower expression); gray columns indicate several other cancer cell lines; white column indicates the nontransformed fibroblast line WI-38. C, A375 and A375M2 cells were treated with 3 μmol/L CCG-1423 or 3 μmol/L daunorubicin for 25 h, and then caspase-3 activity was measured with a fluorescent substrate (Z0DEVD0R110) using excitation at 485 nm and emission detection at 520 nm. In A and C, data are expressed as a percentage of the no FBS control. In B, data are expressed as percentage of the LPA+DMSO control. All data represent n=3.

[2] = test system: PC-3 prostate cancer cells; assay: Matrigel invasion, spontaneous (FIG. 3); type: cell-based, human; conditions: 3 μmol/L, spontaneous invasion through Matrigel
Experimental: A, LPA stimulates invasion of SKOV-3 but not PC-3 cells. Invasion of Matrigel®-coated filters by serum-starved PC-3 prostate cancer or SKOV-3 ovarian cancer cells were measured with or without 30 μmol/L LPA as chemoattractant. B, CCG-1423 inhibits PC-3 cell invasion, whereas PTX inhibits SKOV-3 cell invasion. The effects of CCG-1423 (3 μmol/L) and PTX (100 ng/mL) on spontaneous (PC-3) or LPA-stimulated (SKOV-3) invasion through Matrigel® were measured. In B, data are expressed as a percentage of control. All data represent n=3.

[3] = test system: TK-Renilla luciferase reporter; assay: TK-Renilla (pRL-TK) luciferase reporter, indicator of non-specific compound effects; type: cell-based, human; conditions: PC-3 cells; for inhibition at 10 µM / inhibition at 100 µM: Homo sapiens, PC-3, 19 h; for inhibition at 10 µM: read-out: % inh PRL-TK (10 μM); for inhibition at 100 µM: read-out: % inh PRL-TK (100 μM)
Experimental: (§1) Dual Luciferase Assay: Seed PC-3 prostate cancer cells (40,000 cells/well) were grown in 96-well plates in 10% FBS containing DMEM medium. Cells were transiently transfected with the Gα12QL activator of the Rho/MKL1 pathway, along with the SRE.L-firefly luciferase reporter construct for 6 hours. Additionally, cells were co-transfected with the TK-Renilla luciferase reporter as an indicator of non-specific compound effects. Various concentrations of selected compounds were added to the 96-well plates. Plates were incubated for 19 hours at 37° C. and 5% CO2 in 0.5% FBS containing DMEM medium. Cells were lysed with 1X Passive Lysis Buffer (Promega). Plates were incubated for 30 minutes at room temperature. Luminescence counts were read with a Victor2 (Perkin-Elmer) plate reader.

[4] = test system: Rho/MKL1 mediated transcription; conditions: read-out: IC50 for blocking gene transcription; cited from earlier work
[5] = test system: Rho-expressing prostate cancer and melanoma cell lines; conditions: read-out: IC50 for inhibiting DNA synthesis, cell growth and survival, and Matrigel invasion; cited from earlier work
[6] = test system: PC-3 prostate cancer cells; assay: WST1 cell viability assay; type: cell-based, human; conditions: PC-3 cells, just before lysis; for inhibition at 10 µM / inhibition at 100 µM: Homo sapiens; for inhibition at 10 µM: PC-3, 10 μM, read-out: % inh WST-1 (10 μM); for inhibition at 100 µM: PC-3, 100 μM, read-out: % inh WST-1 (100 μM)
Experimental: WST1 Cell Viability Assay: One hour prior to cell lysis for the dual luciferase assay, 10 μl per well of WST1 reagent (Roche) was added to the 96-well plates. Plates were incubated for 1 hour at 37° C. and 5% CO2. Cell viability was measured by WST1 absorbance at 450 nm with a Victor2 (Perkin-Elmer) plate reader.

[7] = In vivo studies using CCG-1423
Rho/MKL1 pathway = assay: SRE.L-firefly luciferase reporter (dual luciferase assay), Gα12QL-transfected PC-3 cells; type: cell-based, human; conditions: for inhibition at 10 µM: read-out: % inh SRE.L (10 μM); for inhibition at 100 µM: read-out: % inh SRE.L (100 μM)
Experimental: as §1

[8] = Homo sapiens, 19 h, DMSO alone = 0%
[9] = Homo sapiens, 19 h, 100 μM, DMSO alone = 0%

| IC50 (Rho/MKL1 pathway; Homo sapiens, 19 h) [µM] | Compound | cancer cell proliferation and survival [1] | PC-3 cell invasion [2] | % inh PRL-TK (10 μM) ([3]; 10 μM, 19 hrs) | IC50 [4] [µM] | IC50 [5] [µM] | % inh WST-1 (10 μM) ([6]; 10 μM) | in vivo toxicity [7] | % inh SRE.L (10 μM) (Rho/MKL1 pathway; 19 hrs, DMSO alone = 0%) | IC50 (Rho/MKL1 pathway; 19 hrs) [µM] | inhibition at 10 µM ([3]; 10 μM) [%] | inhibition at 100 µM ([3]; 100 μM) [%] | inhibition at 10 µM [6] [%] | inhibition at 100 µM [6] [%] | inhibition at 10 µM (Rho/MKL1 pathway; [8]) [%] | inhibition at 100 µM (Rho/MKL1 pathway; [9]) [%] | % inh PRL-TK (100 μM) ([3]; 100 μM, 19 hrs) [%] | % inh WST-1 (100 μM) ([6]; 100 μM, 100 µM) [%] | % inh SRE.L (100 μM) (Rho/MKL1 pathway; 100 μM, 19 hrs, DMSO alone = 0%) [%] |
| --- | --- | --- | --- | --- | --- | --- | --- | --- | --- | --- | --- | --- | --- | --- | --- | --- | --- | --- | --- |
| – | CC(ONC(=O)c1cc(C(F)(F)F)cc(C(F)(F)F)c1)C(=O)Nc1ccc(Cl)cc1 (stereo not shown) [CCG-1423] | inhibits | inhibits | 48, ND % | 1 | 1 | 44, ND % | limited by non-specific toxicity | 74, ND % | 1.5 | – | – | – | – | – | – | – | – | – |
| 9.1 | FC(F)(F)c1cc(CNCCCNc2ccc(Cl)cc2)cc(C(F)(F)F)c1 [Compound 28, N^1-(3,5-bis(trifluoromethyl)benzyl)-N^3-(4-chlorophenyl)propane-1,3-diamine] | – | – | – | – | – | – | – | – | – | 6 | 90 | 0 | 89 | 65 | 100 | – | – | – |
| 13 | O=C(NCCC(=O)N1CCc2cc(Cl)ccc21)c1cc(C(F)(F)F)cc(C(F)(F)F)c1 [Compound 29, N-(3-(5-chloroindolin-1-yl)-3-oxopropyl)-3,5-bis(trifluoromethyl)benzamide] | – | – | – | – | – | – | – | – | – | 0 | 1 | 0 | 0 | 15 | 40 | – | – | – |
| 25 | O=C(CCNC(=O)c1cc(C(F)(F)F)cc(C(F)(F)F)c1)Nc1ccc(Cl)cc1 [Compound 30, N-(3-(4-chlorophenylamino)-3-oxopropyl)-3,5-bis(trifluoromethyl)benzamide] | – | – | – | – | – | – | – | 38% | 38 | 0 | 15 | 0 | 6 | 44 | 66 | 22 | 10 | 64 |
| > 100 | O=C(Nc1ccc(Cl)cc1)c1ccc(NC(=O)c2cc(C(F)(F)F)cc(C(F)(F)F)c2)cc1 [Compound 38] | – | – | – | – | – | – | – | – | – | 0 | – | 0 | – | 0 | – | – | – | – |
| > 100 | O=C(CCc1cnnn1-c1cc(C(F)(F)F)cc(C(F)(F)F)c1)Nc1ccc(Cl)cc1 [Compound 59] | – | – | – | – | – | – | – | – | – | -31.8 | -13.3 | -9.5 | -11.8 | -3 | 4.7 | – | – | – |
